Results taken from PubChem BioAssay (NCI).
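Assay format: 96-well plates, 48-hour exposure. At the TGI there is no net growth.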

Assays:
Experiment in all cases: growth of human tumour cells (NCI), 48 h
RPMI-8226 leukemia = tested on: RPMI-8226 leukemia
COLO 205 colon = tested on: COLO 205 colon
SK-MEL-2 melanoma = tested on: SK-MEL-2 melanoma
A549 NSCLC = tested on: A549 NSCLC
DLD-1 colon = tested on: DLD-1 colon
UACC-257 melanoma = tested on: UACC-257 melanoma
SF-295 CNS = tested on: SF-295 CNS
NCI-H23 lung = tested on: NCI-H23 lung
ACHN renal = tested on: ACHN renal
UO-31 renal = tested on: UO-31 renal
MOLT-4 leukemia = tested on: MOLT-4 leukemia
SK-MEL-5 melanoma = tested on: SK-MEL-5 melanoma
OVCAR-8 ovarian = tested on: OVCAR-8 ovarian
786-0 renal = tested on: 786-0 renal
CCRF-CEM leukemia = tested on: CCRF-CEM leukemia
SF-268 CNS = tested on: SF-268 CNS
NCI-H460 lung = tested on: NCI-H460 lung
HT29 colon = tested on: HT29 colon
SN12C renal = tested on: SN12C renal
HCT-15 colon = tested on: HCT-15 colon
LXFL 529 NSCLC = tested on: LXFL 529 NSCLC
IGROV1 ovarian = tested on: IGROV1 ovarian
DMS 114 small cell lung = tested on: DMS 114 small cell lung
DMS 273 small cell lung = tested on: DMS 273 small cell lung
OVCAR-3 ovarian = tested on: OVCAR-3 ovarian
HCT-116 colon = tested on: HCT-116 colon
U251 CNS = tested on: U251 CNS
UACC-62 melanoma = tested on: UACC-62 melanoma
NCI-H522 lung = tested on: NCI-H522 lung
TK-10 renal = tested on: TK-10 renal
OVCAR-5 ovarian = tested on: OVCAR-5 ovarian
KM20L2 colon = tested on: KM20L2 colon
SK-MEL-28 melanoma = tested on: SK-MEL-28 melanoma
KM12 colon = tested on: KM12 colon
HCC-2998 colon = tested on: HCC-2998 colon
HOP-92 NSCLC = tested on: HOP-92 NSCLC
HL-60(TB) leukemia = tested on: HL-60(TB) leukemia
SK-OV-3 ovarian = tested on: SK-OV-3 ovarian
SNB-78 CNS = tested on: SNB-78 CNS
SR leukemia = tested on: SR leukemia
HOP-62 NSCLC = tested on: HOP-62 NSCLC
EKVX NSCLC = tested on: EKVX NSCLC
A498 renal = tested on: A498 renal
SF-539 CNS = tested on: SF-539 CNS
OVCAR-4 ovarian = tested on: OVCAR-4 ovarian
XF 498 CNS = tested on: XF 498 CNS
M14 melanoma = tested on: M14 melanoma
NCI-H226 lung = tested on: NCI-H226 lung
MALME-3M melanoma = tested on: MALME-3M melanoma
SNB-75 CNS = tested on: SNB-75 CNS
LOX IMVI melanoma = tested on: LOX IMVI melanoma
M19-MEL melanoma = tested on: M19-MEL melanoma
RXF 393 renal = tested on: RXF 393 renal
SW-620 colon = tested on: SW-620 colon
SNB-19 CNS = tested on: SNB-19 CNS
K-562 leukemia = tested on: K-562 leukemia

Measured: TGI

COc1ccccc1OCc1nnc(SCC(=O)O)n1-c1ccccc1
not listed: M19-MEL melanoma | RXF 393 renal | SW-620 colon | SNB-19 CNS | K-562 leukemia
> 100 µM: all other assays above

COc1cc2c(cc1OC)[C@]1(O)C(=O)c3ccc4c(c3O[C@@H]1CO2)C[C@H](C(C)(C)O)O4
not listed: SF-295 CNS | SK-MEL-5 melanoma | SF-268 CNS | SN12C renal | HCT-15 colon | SR leukemia | OVCAR-4 ovarian | NCI-H226 lung
> 100 µM: all other assays above
